From patent US9932589B2, “EML4-ALK fusion gene” (Astellas Pharma Inc., priority 2006, dated 2018)

Assays:
[1] = test system: U-87MG cells; experiment: anchorage independent growth on spheroid plate, U-87MG cells expressing full length ALK; format: cell-based, human; conditions: siRNA transfected, 3 days; for U-87MG cell growth inhibition rate: spheroid plate
Method: (§1) The v1 expressing 3T3 cells (Example 6(1)) and one of the human glioma cells expressing the full length ALK polypeptide and not expressing EML4-ALK fusion polynucleotide endogenously, U-87 MG cells, were seeded to a 96 well spheroid plate (Sumilon Celltight Spheroid 96U, Sumitomo Bakelite Inc.) at 3000 cells per well in a medium containing 10% fetal bovine serum (DMEM for v1 expressing 3T3 cells and RPMI 1640 for U-87MG). […] At the same time, cells were counted before the addition of drugs (Day 0). Then, cells were cultured under 5% CO2, at 37° C. for 3 days, mixed with a reagent for measuring cell number (CellTiter-Glo™ Luminescent Cell Viability Assay; Promega Inc.) stirred for 20 minutes, and the measurements (day 3) were carried out using a luminometer (ML3000 microtiter plate luminometer; Dynatech Laboratories Inc.).

[2] = test system: EML4-ALK fusion polynucleotide v1; experiment: siRNA inhibition of mRNA expression of EML4-ALK fusion polynucleotide v1 in v1 expressing 3T3 cells, quantitative PCR; format: cell-based, mouse; conditions: siRNA 20 nM, 72 hours; for Inhibition rate for EML4-ALK gene expression (v1 expressing 3T3 cells): mRNA
Method: (§2) The v1 expressing 3T3 cells and U-87MG cells were seeded to 12 well plates (IWAKI; Asahi techno glass corp.) at 50,000 cells and 150,000 cells, respectively. Four hours later, using a transfection reagent (Lipofectamine RNAiMax; Invitrogen Inc.), siRNA-1 to siRNA-9 were prepared to a final concentration of 20 nM and transfected to cells according to the attached instruction. In addition, as a control no siRNA transfection samples were prepared. After 72 hours, the medium was removed, and total RNA was extracted using an RNA purification kit (RNeasy Mini Kit; QIAGEN Inc.) according to the attached instruction, and cDNA was prepared using a cDNA synthesizing kit (ThermoScript RT-PCR System; Invitrogen Inc.) according to the attached instruction.
(§3) The amount of expressed mRNA of the EML4-ALK fusion polynucleotide v1 in v1 expressing 3T3 cells and the amount of mRNA of the ALK gene in U-87MG cells were quantitated using a quantitative PCR reagent (Power SYBR Green PCR Master Mix; Applied Biosystems Inc.) The PCR reaction was carried out as follows: after 10 minutes incubation at 95° C., 45 cycles of 95° C. for 15 seconds and 60° C. for 60 seconds, and then one cycle of 95° C. for 15 seconds, 60° C. for 15 seconds and 95° C. for 15 seconds to complete the reaction. In addition, to calibrate the amount of expression, the amount of expression of the mouse cyclophilin B gene and the human GAPDH gene was similarly quantitated for v1 expressing 3T3 cells and U-87MG cells, respectively. Analyses were carried out using a sequence detector (ABI PRISM 7900 Sequence Detection System; Perkin-Elmer Applied Biosystems Inc.).
(§4) Oligo nucleotides consisting of the base sequences represented by SEQ ID NO: 44 and 48, SEQ ID NO: 50 and 56, SEQ ID NO: 44 and 48 and SEQ ID NO: 12 and 13 were used as the primer sets that specifically recognize the EML4-ALK fusion polynucleotide v1, the mouse cyclophilin B gene, the human ALK gene and the human GAPDH gene. Also, to obtain a standard curve to calculate the amount of respective mRNA, PCR was performed using human genomic DNA (Clontech) as a template for EML4-ALK fusion polynucleotide v1, human ALK and human GAPDH, and using mouse genomic DNA (Clontech) as a template for mouse cyclophilin B and the aforementioned primer sets under the same condition. Since a primer set corresponding to human ALK polynucleotide exon 29 was used to detect the EML4-ALK fusion polynucleotide v1, the standard curve can be obtained using human genomic DNA. The expression amount of the EML4-ALK fusion polynucleotide v1 and the human ALK gene in respective samples was calibrated with the expression amount of the mouse cyclophilin B gene and the human GAPDH gene to obtain the calibrated expression amount.

[3] = test system: human ALK gene; experiment: siRNA inhibition of mRNA expression of ALK gene in U-87MG cells, quantitative PCR; format: cell-based; conditions: siRNA 20 nM, 72 hours; for Inhibition rate for ALK gene expression (U-87 MG cells): mRNA
Method: as §2, §3, §4

[4] = test system: v1 expressing 3T3 cells; experiment: anchorage independent growth on spheroid plate, v1 expressing 3T3 cells; format: cell-based, mouse; conditions: siRNA transfected, 3 days; for v1 expressing 3T3 cells growth inhibition rate: spheroid plate
Method: as §1

In the case of “siRNA-1: siRNA, sense strand SEQ ID NO: 111, antisense SEQ ID NO: 112; fusion area of EML4-ALK v1 (sense UGGGAAAGGACCUAAAGTGTA; antisense CACTTTAGGUCCUUUCCCAGG; chemistry not given here)”, the “U-87MG cell growth inhibition rate” value [1] is reported as −13%, the “Inhibition rate for EML4-ALK gene expression (v1 expressing 3T3 cells)” value (shortened to “Inhibition rate … (v1 expressing 3T3 cells)”) [2] is reported as 80% and the “Inhibition rate for ALK gene expression (U-87 MG cells)” value (shortened to “Inhibition rate … (U-87 MG cells)”) [3] is reported as −12%.

In the case of “siRNA-2: siRNA, sense strand SEQ ID NO: 113, antisense SEQ ID NO: 114; fusion area of EML4-ALK v1 (sense GGGAAAGGACCUAAAGTGTAC; antisense ACACTTUAGGUCCUUUCCCAG; chemistry not given here)”, the “U-87MG cell growth inhibition rate” value [1] is reported as 25%, the “Inhibition rate … (v1 expressing 3T3 cells)” value [2] is reported as 66% and the “Inhibition rate … (U-87 MG cells)” value [3] is reported as 11%.

For “siRNA-3: siRNA, sense strand SEQ ID NO: 115, antisense SEQ ID NO: 116; fusion area of EML4-ALK v1 (sense GGACCUAAAGUGUACCGCCGG; antisense GGCGGTACACUUUAGGUCCUU; chemistry not given here)”, the “U-87MG cell growth inhibition rate” value [1] was −21%, the “Inhibition rate … (v1 expressing 3T3 cells)” value [2] was 62% and the “Inhibition rate … (U-87 MG cells)” value [3] was 10%.

With “siRNA-4: siRNA, sense strand SEQ ID NO: 117, antisense SEQ ID NO: 118; fusion area of EML4-ALK v1 (sense CCUAAAGUGUACCGCCGGAAG; antisense TCCGGCGGUACACUUUAGGUC; chemistry not given here)” the “U-87MG cell growth inhibition rate” value [1] was −8%, the “Inhibition rate … (v1 expressing 3T3 cells)” value [2] was 86% and the “Inhibition rate … (U-87 MG cells)” value [3] was 22%.

For “siRNA-5: siRNA, sense strand SEQ ID NO: 119, antisense SEQ ID NO: 120; fusion area of EML4-ALK v1 (sense AAAGUGUACCGCCGGAAGCAC; antisense GCTTCCGGCGGUACACUUUAG; chemistry not given here)”, the “U-87MG cell growth inhibition rate” value [1] was −13%, the “Inhibition rate … (v1 expressing 3T3 cells)” value [2] was 76% and the “Inhibition rate … (U-87 MG cells)” value [3] was −22%.

In the case of “siRNA-6: siRNA, sense strand SEQ ID NO: 121, antisense SEQ ID NO: 122; fusion area of EML4-ALK v1 (sense AAGUGUACCGCCGGAAGCACC; antisense TGCTTCCGGCGGUACACUUUA; chemistry not given here)”, the “v1 expressing 3T3 cells growth inhibition rate” value [4] is reported as 97%, the “U-87MG cell growth inhibition rate” value [1] is reported as 16% and the “Inhibition rate … (v1 expressing 3T3 cells)” value [2] is reported as 69%. For the same substance, the “Inhibition rate … (U-87 MG cells)” value [3] was 15%.

In the case of “siRNA-7: siRNA, sense strand SEQ ID NO: 123, antisense SEQ ID NO: 124; ALK area of EML4-ALK v1 (sense GGCCUGUAUACCGGATAATGA; antisense ATTATCCGGUAUACAGGCCCA; chemistry not given here)”, the “v1 expressing 3T3 cells growth inhibition rate” value [4] is reported as 87%, the “growth of U-87MG cells (in words)” value [1] is reported as “did not inhibit the growth of U-87MG cells” and the “U-87MG cell growth inhibition rate” value [1] is reported as 15%. The “Inhibition rate … (v1 expressing 3T3 cells)” value [2] was 67%.

For “siRNA-8: siRNA, sense strand SEQ ID NO: 125, antisense SEQ ID NO: 126; ALK area of EML4-ALK v1 (sense GGCCUGUAUACCGGAUAAUGA; antisense AUUAUCCGGUAUACAGGCCCA; chemistry not given here)”, the “growth of U-87MG cells (in words)” value [1] was “did not inhibit the growth of U-87MG cells”, the “U-87MG cell growth inhibition rate” value [1] was −21% and the “Inhibition rate … (v1 expressing 3T3 cells)” value [2] was 70%.

With “siRNA-9: negative control siRNA, SEQ ID NO: 127 and 128, base sequence not present in mammalian cells (chain 1 CGGCUGCAAUCGATTGATAGC; chain 2 TATCAAUCGAUUGCAGCCGAA; chemistry not given here)” the “anchorage independent growth of v1 expressing 3T3 cells (in words)” value [4] was “did not inhibit the growth”, the “v1 expressing 3T3 cells growth inhibition rate” value [4] was −35% and the “growth of U-87MG cells (in words)” value [1] was “did not inhibit the growth”. For the same substance, the “U-87MG cell growth inhibition rate” value [1] was −16%, the “expression inhibitory effect on the EML4-ALK fusion polynucleotide (in words)” value [2] was “did not demonstrate strong expression inhibitory effect” and the “Inhibition rate … (v1 expressing 3T3 cells)” value [2] was 29%. The “expression inhibitory effect on the human ALK gene (in words)” value [3] was “did not demonstrate strong expression inhibitory effect” and the “Inhibition rate … (U-87 MG cells)” value [3] was −31%.
